Values after ≈ are worked out from the molar mass of the structure shown.
Columns and labels:
[1] = system: Malassezia furfur (ATCC-14521); experiment: Antifungal culture microdilution MIC assay; type: cell-based; details: ATCC14521, 50% reduction of fungal growth, 48-72 hours
Excerpt: (§1) The anti-fungal activity of CAP-50CR and CAP-1.5SE against Malassezia furfur and Candida albicans are compared with the anti-fungal drug ketoconazole by the minimum inhibitory concentration (“MIC”) method.
(§2) The inhibitory effect assay of CAP-50CR and CAP-1.5SE against Malassezia furfur and Candida albicans may be performed as per a culture microdilution reference method. Ketoconazole, an anti-fungal drug, may be used as the standard. Freeze-dried Candida albicans (ATCC-10231) and Malassezia furfur (ATCC-14521) strains may be used as well. A loopful culture of Malassezia furfur and Candida albicans may be streaked on SDA (Sabouraud Dextrose Agar), and incubated at 35±2° C. and 25±2° C. for 48-72 hours, respectively. Finally, cells may be suspended in a RPMI 1640 medium to obtain a final concentration of 1×10^6 CFU/mL. For the evaluation of inhibitory activity, the effect of CAP-50CR and CAP-1.5SE may be examined against strains of Malassezia furfur and Candida albicans cultured in 96-well microplates at different concentrations of 35±2° C. and 25±2° C., respectively, for 48-72 hours.
(§3) Sterility and growth control may also be used. Yeast growth may be determined in an Enzyme-Linked ImmunoSorbent Assay Microplate Reader at 530 nm. […]

[2] = system: Candida albicans (ATCC-10231); experiment: Antifungal culture microdilution MIC assay; type: cell-based; details: ATCC10231, 50% reduction of fungal growth, 48-72 hours
Excerpt: as §1, §2, §3

MIC50 [1]: 0.48 µg/mL (≈ 0.903 µM)
MIC50 [2]: 0.48 µg/mL (≈ 0.903 µM)
Structure (SMILES): CC(=O)N1CCN(c2ccc(OCC3COC(Cn4ccnc4)(c4ccc(Cl)cc4Cl)O3)cc2)CC1 (centres unmarked) [Ketoconazole]
